Test results published in publication PMC7038073, “Substituted Piperazines as Novel Potential Radioprotective Agents” (Molecules, 2020).
Several values for one entry are separate records, joined by “and”; a condition that tells them apart may be missing. Identical values can stand only once. Counter-ions that a name gives are not always drawn.

Legend:
[1] = WST-1 cytotoxicity test, HT-29; format: cell-based; settings: human, HT-29 cells, 48 h, WST-1, mean ± SD of three experiments, read-out: relative viability (%) compared to untreated control; for viability at 48 h, 10 µM: HT-29, 10 µM; for viability at 48 h, 100 µM: HT-29, 100 µM
Method: (§1) In this study, the cytotoxic effects of nine new compounds (2, 3, 4, 5, 6, 7, 8, 9, 10) were tested on 10 human cell lines (nine cancer and one non-cancer cell line). The cell lines were treated with each compound at concentrations of 10 µM and 100 µM for 48 h. The proliferation capacity of the treated cells was determined by WST-1 test and compared against the proliferation rate of the untreated control cells (100%).
(§2) The cell lines Jurkat, MOLT-4, A2780, A549, HT-29, PANC-1, HeLa, MCF-7, SAOS-2, and MRC-5 (all purchased from Sigma Aldrich, Czech Republic) were included in this study. All cell lines were maintained according to the provider’s guidelines, and plated and treated in 96-well plates (500 to 30 × 10^3 cells per well). The tested compounds 2, 3, 4, 5, 6, 7, 8, 9, and 10 were dissolved in 0.1% DMSO and kept in 10 mM stock solutions. Before use, the stock solution was diluted in culture media at ratios of 1:100 and 1:1000. The studied cell lines were treated with the compounds 2, 3, 4, 5, 6, 7, 8, 9, and 10 at concentrations of 10 and 100 µM for 48 h. Control cells were tested in culture media with and without DMSO (0.1%). The cells were also treated with 1 µM doxorubicin as a cytotoxicity control.
(§3) The WST-1 (2-(4-iodophenyl)-3-(4-nitrophenyl)-5-(2,4-disulfophenyl)-2H-tetrazolium, monosodium salt) test (Roche, Mannheim, Germany) was used according to the manufacturer’s protocol to determine cell viability in all 10 cell lines 48 h after treatment with the tested compounds. The cells were analyzed in a Tecan Infinite M200 spectrometer (Tecan Group, Männedorf, Switzerland) at 440 nm.

[2] = WST-1 cytotoxicity test, PANC-1; format: cell-based; settings: human, PANC-1 cells, 48 h, WST-1, mean ± SD of three experiments, read-out: relative viability (%) compared to untreated control; for viability at 48 h, 10 µM: PANC-1, 10 µM; for viability at 48 h, 100 µM: PANC-1, 100 µM
Method: as §1, §2, §3

[3] = Safe use evaluation in vivo (MTD, symptoms, blood biochemistry, histopathology); parameters: key to piloerection / ataxia / prostration / tremor / excitation / saber-like tail / stooping / hyper/hypoventilation / drop of eyelids / lacrimation / convulsion: + (mild); ++ (moderate); +++ (severe); settings: both sexes, mouse, in vivo, ip; BALB/c mice, i.p., two males and two females per group; read-out: MTD (maximum tolerated dose)
Text: (§4) Mild to moderate signs of intoxication could be observed once the MTD (maximum tolerated dose) was reached. In vivo, MTD is described as the highest dose of a given compound that can be administered before showing signs of toxicity (based on the same dose regimen or series) and whose excess would be expected to be fatal, yielding unreliable results. Therefore, a staged approach (including core and intermediate dose levels) has become a suitable strategy in this regard.
(§5) The symptoms described in Tables S1 (in Supplementary Materials) and S2 (in Supplementary Materials) diminished spontaneously within 2 h. After observing these symptoms, MTD thresholds were set at 100, 200, 100, 200, 2000, and 650 mg/kg for compounds 4, 5, 6, 7, 8, and 10, respectively. Animals receiving MTD were further examined by necropsy 48 h after administration. Plasma (reflecting biochemical changes in blood), intestine with mesentery (site of administration), and liver and kidney (elimination organs) were collected to evaluate the toxic potential of the tested compounds. For evaluation of the impact of the compounds on organ function, we performed blood biochemistry test 48 h after administration. The test focused on seven important indicators: glucose and amylase for normal function of pancreas, alanine aminotransferase (ALT), aspartate aminotransferase (AST), and alkaline phosphatase (ALP) for the normal function of liver, and urea and creatinine for the normal function of kidneys. […] According to Thoolen et al., focal necrosis can be occasionally seen in untreated rodents and therefore is not pathognomonic of hepatotoxicity, which is consistent with our findings.
(§6) Both male and female BALB/c mice (Velaz s r.o., Prague, Czech Republic) with an average weight of 21 ± 0.8 g and 21 ± 0.8 g, respectively, were selected for the safe use evaluation in vivo. The mice were housed in environmentally controlled breeding units (Faculty of Military Health Sciences vivarium; temperature 21 ± 1 °C, 12/12 h light/dark cycle) with access to food (Cerea corp., Pardubice, Czech Republic) and water ad libitum. The acclimatization period of the mice was at least 10 days before each experiment. All experimental procedures and protocols were reviewed and approved by the Ethics Committee of the Faculty of Military Health Sciences in Hradec Kralove, University of Defence in Brno. Compounds 2, 3, 4, 5, 6, 7, 8, 9, and 10 were dissolved in physiological saline solution (B. Braun Melsungen AG, Melsungen, Germany) and injected intraperitoneally (i.p.) into the corresponding mouse groups, which were composed of two males and two females. Several doses were administered to determine the maximum tolerated dose (MTD), which was assessed by close observation for signs of toxicity within the first two hours after administration of the compounds, and then regularly over the following 48 h. The observed symptoms were registered according to the laboratory Animal Science Association UK guidelines (for a detailed description, see [36]. After 48 h, the surviving animals were euthanized with CO2 and evaluated by basic macroscopic necropsy. Venous blood was collected into heparinized tubes (Scanlab Systems, Prague, Czech Republic) and the plasma was separated in a U-320R centrifuge (Boeco, Hamburg, Germany) to further evaluate the toxic potential of the tested compounds. The concentrations of glucose, urea, and creatinine and the levels of alanine aminotransferase (ALT), aspartate aminotransferase (AST), alkaline phosphatase (ALP), and amylase were evaluated in a qualified biochemical laboratory of the University Hospital Hradec Kralove (Hradec Kralove, Czech Republic). Additionally, intestine, liver, and kidney samples were collected for histopathologic examination. […]

BALB/c mice = assay: as above; parameters: key to piloerection / ataxia / prostration / tremor / excitation / saber-like tail / stooping / hyper/hypoventilation / drop of eyelids / lacrimation / convulsion: + (mild); ++ (moderate); +++ (severe); settings: for ALT / AST / Amylase / Glucose / Urea / ALP / Creatinine: plasma 48 h after MTD i.p.
Text: as §4, §5, §6

[4] = female BALB/c mice, animals 1 and 2
[5] = female mice, at MTD i.p., animals 1 and 2
[6] = male BALB/c mice, animals 1 and 2
[7] = male mice, at MTD i.p., animals 1 and 2

| Structure (SMILES) | viability at 48 h, 10 µM [1] [%] | viability at 48 h, 100 µM [1] [%] | viability at 48 h, 10 µM [2] [%] | viability at 48 h, 100 µM [2] [%] | MTD at 48 h [3] [mg/kg] | ALT (BALB/c mice; [4]) | AST (BALB/c mice; [4]) | Amylase (BALB/c mice; [4]) | Glucose (BALB/c mice; [4]) | Urea (BALB/c mice; [4]) | hyper/hypoventilation (BALB/c mice; [5]) | tremor (BALB/c mice; [5]) | ALP (BALB/c mice; [6]) | ALT (BALB/c mice; [6]) | AST (BALB/c mice; [6]) | Amylase (BALB/c mice; [6]) | Creatinine (BALB/c mice; [6]) | Glucose (BALB/c mice; [6]) | Urea (BALB/c mice; [6]) | tremor (BALB/c mice; [7]) | other results |
| --- | --- | --- | --- | --- | --- | --- | --- | --- | --- | --- | --- | --- | --- | --- | --- | --- | --- | --- | --- | --- | --- |
| COc1ccc(NCCCN2CCN(CCO)CC2)cc1.Cl.Cl.Cl [Compound 7, 2-(4-(3-((4-methoxyphenyl)amino)propyl)piperazin-1-yl)ethanol trihydrochloride] | 96 ± 3 | 118 ± 2 | 99 ± 10 | 116 ± 3 | 200 | 22 U/L and 33 U/L | 52 U/L and 71 U/L | 2501 U/L and 1496 U/L | 241 mg/dL and 178 mg/dL | 40 mg/dL | ++ | ++ | 78 U/L and 55 U/L | 19 U/L and 29 U/L | 48 U/L and 66 U/L | 2272 U/L and 1858 U/L | 23 µg/dL and 34 µg/dL | 244 mg/dL and 194 mg/dL | 35 mg/dL and 38 mg/dL | ++ | drop of eyelids (BALB/c mice; [5]): +; prostration (BALB/c mice; [5]): +; drop of eyelids (BALB/c mice; [7]): +; hyper/hypoventilation (BALB/c mice; [7]): ++; prostration (BALB/c mice; [7]): ++; weight at 24 h (%) (BALB/c mice; [7]): -0.3% and -1.5%; weight at 48 h (%) (BALB/c mice; [7]): 0.0% and -3.7% |
| OCCN1CCN(CC(O)CN2CCN(CCO)CC2)CC1 [Compound 8, 1.3-bis [4-(2-hydroxyethyl)piperazin-1-yl)propan-2-ol tetrahydrochloride] | 101 ± 1 | 154 ± 11 | 98 ± 9 | 117 ± 11 | 2000 | 20 U/L and 23 U/L | 78 U/L and 67 U/L | 1798 U/L and 2455 U/L | 171 mg/dL and 210 mg/dL | 35 mg/dL and 40 mg/dL | – | + | 71 U/L and 82 U/L | 26 U/L and 22 U/L | 65 U/L and 56 U/L | 2674 U/L and 2327 U/L | 57 µg/dL and 56 µg/dL | 202 mg/dL and 249 mg/dL | 41 mg/dL and 37 mg/dL | + | ALP (BALB/c mice; [4]): 121 U/L and 81 U/L; Creatinine (BALB/c mice; [4]): 79 µg/dL; excitation (BALB/c mice; [5]): +; excitation (BALB/c mice; [7]): +; weight at 24 h (%) (BALB/c mice; [7]): -3.8%; weight at 48 h (%) (BALB/c mice; [7]): -2.9% |
| Cl.Cl.Cl.OCCN1CCN(CC(O)CNc2ccccc2)CC1 (stereo not drawn) [Compound 10, 1-(phenylamino]-3-[4-(2-hydroxyethyl)piperazin-1-yl)propan-2-ol trihydrochloride] | 104 ± 11 | 113 ± 2 | 95 ± 7 | 111 ± 6 | 650 | 27 U/L and 24 U/L | 55 U/L and 56 U/L | 1939 U/L and 1826 U/L | 225 mg/dL and 178 mg/dL | 38 mg/dL | + | + | 42 U/L and 61 U/L | 24 U/L and 30 U/L | 58 U/L and 51 U/L | 2212 U/L and 2080 U/L | 34 µg/dL | 189 mg/dL and 236 mg/dL | 47 mg/dL and 43 mg/dL | + | histopathological change: focal necrosis (BALB/c mice; at MTD i.p., necropsy 48 h after administration, one animal each): five small foci; ALP (BALB/c mice; [4]): 67 U/L and 73 U/L; Creatinine (BALB/c mice; [4]): 68 µg/dL and 67 µg/dL; ataxia (BALB/c mice; [5]): +; convulsion (BALB/c mice; [5]): +; excitation (BALB/c mice; [5]): +; prostration (BALB/c mice; [5]): ++; weight at 24 h (%) (BALB/c mice; [5]): -1.5% and -5.6%; ataxia (BALB/c mice; [7]): +; excitation (BALB/c mice; [7]): +; hyper/hypoventilation (BALB/c mice; [7]): +; prostration (BALB/c mice; [7]): ++ |
